Source: patent publication US12247004B2, “2-amino-N-(amino-oxo-aryl-lambda6-sulfanylidene)acetamide compounds and their therapeutic use” (Oxford Drug Design Limited, priority 2019, dated 2025)
Converted amounts (≈) assume the structure as drawn. Like-named read-outs stand apart in the source and are kept apart here.

Experiments:
[1] = target: Isoleucyl-tRNA synthetase (IleRS) (Escherichia coli (strain K12), UniProt P00956); assay: Isoleucyl-tRNA synthetase enzyme inhibition (AMP-Glo; single point % inhibition at 100 μM and IC50); format: biochemical; details: E. coli IleRS; read-out: Enzyme Inhibition - IC50, E. coli IleRS
From the text: Study 1—Enzyme Inhibition
The aminoacylation reaction catalyzed by aminoacyl-tRNA synthetases (aaRS) takes place in two steps. In the first step, aaRS activates its cognate amino acid with ATP; and in the second step the activated amino acid is loaded to its corresponding tRNA. This reaction can be summarized as follows: aaRS+aa+ATP=aaRS-aa-AMP+PPi aaRS-aa-AMP+tRNA=aa-tRNA+AMP+aaRS […]
wherein: aaRS, aminoacyl-tRNA synthetase; aa, amino acid; aaRS-aa-AMP, enzyme-bound to aminoacyl-adenylate; AMP, adenosine monophosphate; aa-tRNA, aminoacyl-tRNA, PPi, inorganic pyrophosphate.
Isoleucyl-tRNA Synthetase a. Single Point Percentage Inhibition
The activity of the pathogenic aaRSs was monitored by measuring AMP production using the commercial kit AMP-Glo (Promega, Madison, USA).
Ligand stock solutions were prepared in 100% DMSO at 10 mM concentration. An assay buffer consisting of 100 mM Tris HCl pH 7.6, 40 mM MgCl, 20 mM KCl and 150 mM NaCl was prepared in dH2O. An enzyme solution containing 51.77 μM IleRS was prepared in assay buffer to provide 30 nM final assay concentration and 75 nM reservoir concentration for a 1:2.5 dilution in the assay. A substrate solution was also prepared in assay buffer with 50 mM L-isoleucine, 10 mM ATP and 100 mg/mL tRNA. A final assay concentration of 500 μM L-isoleucine, 5 μM ATP and 1 mg/mL tRNA and reservoir concentration of 833.33 μM L-isoleucine, 8.33 μM ATP and 1.67 mg/mL tRNA was used for a 1:1.66 dilution in assay.
Enzyme percentage inhibition values were recorded in triplicate at a single point concentration of 100 μM.
Using the same enzymatic assay in a 384-well plate format, ten point concentration response curves were generated for each compound using a top concentration of 100 μM. The known inhibitor, IleAMS was used as a positive control for the IleRS assay. 100% DMSO was used as a negative control. The IC50 was calculated based on non-linear regression analysis.

[2] = system: bacteria (ATCC reference strains); assay: Antibacterial activity, MIC by broth micro-dilution (CLSI)
[3] = target: Leucyl-tRNA synthetase (LeuRS) (Escherichia coli (strain K12), UniProt P07813); assay: Leucyl-tRNA synthetase enzyme inhibition (AMP-Glo; single point % inhibition at 100 μM and IC50); format: biochemical
[4] = Human cell viability / cytotoxicity (CellTiter-Glo, 24 hours); format: cell-based; details: human, HepG2 cells (ATCC HB-8065); HepG2 ATCC HB-8065, 24 hours; read-out: Cytotoxicity in HepG2 ATCC HB-8065 Cell Line, IC50
Protocol: Study 3—Human Cell Viability
Compounds were assessed for potential non-specific cytotoxic effects against a human hepatic cell line (HepG2 ATCC HB-8065). 96-well plates were seeded with HepG2 cells in concentration of 15,000 cells per well in 100 μL of MEM growth media completed with 1% NEAA and 1% sodium pyruvate. Border wells were filled with 100 μL of sterile PBS. Two days upon cells incubation, the compounds were added. Compound dilutions were prepared in 96-well V-bottom plate in pure DMSO. Growth media from 5 plates were aspirated and replaced with 98.7 μL of fresh growth media. 1.28 μL of compounds prepared in V-bottom plates were transferred with multichannel pipette into test plates (78.1× dilution). Final DMSO concentration was 1.28% per well. In control wells, 1.28 μL of DMSO was added in 98.7 μL of media. Compounds were tested in duplicates. Cells were incubated with compounds for 24 hours when cell viability was assessed by measuring ATP levels. ATP levels were measured by adding 50 μL of CellTiter-Glo reagent to each well and after 5 minutes of incubation luminescence was measured with SpectraMax i3. The potential effect of tested compounds on cell viability was determined by comparing the signal obtained in presence of different concentrations of the compounds with those obtained in the presence of DMSO only. The potential effects were then calculated and presented as IC50 values (μg/mL).

[5] = Escherichia coli, ATCC25922, read-out: Antibacterial Activity (MIC), A = E. coli ATCC 25922
[6] = Acinetobacter baumannii, read-out: Antibacterial Activity (MIC), E = A. baumannii B1931
[7] = Escherichia coli, BAA2469, read-out: Antibacterial Activity (MIC), G = E. coli BAA-2469
[8] = Haemophilus influenzae, ATCC49247, read-out: Antibacterial Activity (MIC), F = H. influenzae ATCC 49247
[9] = Klebsiella pneumoniae, ATCC700603, read-out: Antibacterial Activity (MIC), C = K. pneumoniae ATCC 700603
[10] = Pseudomonas aeruginosa, ATCC27853, read-out: Antibacterial Activity (MIC), D = P. aeruginosa ATCC 27853
[11] = Enterobacter cloacae, read-out: Antibacterial Activity (MIC), B = Enterobacter cloacae B1966
[12] = E. coli LeuRS, read-out: Enzyme Inhibition - IC50, E. coli LeuRS

Sequence of Leucyl-tRNA synthetase (LeuRS) (P07813 whole entry, looked up): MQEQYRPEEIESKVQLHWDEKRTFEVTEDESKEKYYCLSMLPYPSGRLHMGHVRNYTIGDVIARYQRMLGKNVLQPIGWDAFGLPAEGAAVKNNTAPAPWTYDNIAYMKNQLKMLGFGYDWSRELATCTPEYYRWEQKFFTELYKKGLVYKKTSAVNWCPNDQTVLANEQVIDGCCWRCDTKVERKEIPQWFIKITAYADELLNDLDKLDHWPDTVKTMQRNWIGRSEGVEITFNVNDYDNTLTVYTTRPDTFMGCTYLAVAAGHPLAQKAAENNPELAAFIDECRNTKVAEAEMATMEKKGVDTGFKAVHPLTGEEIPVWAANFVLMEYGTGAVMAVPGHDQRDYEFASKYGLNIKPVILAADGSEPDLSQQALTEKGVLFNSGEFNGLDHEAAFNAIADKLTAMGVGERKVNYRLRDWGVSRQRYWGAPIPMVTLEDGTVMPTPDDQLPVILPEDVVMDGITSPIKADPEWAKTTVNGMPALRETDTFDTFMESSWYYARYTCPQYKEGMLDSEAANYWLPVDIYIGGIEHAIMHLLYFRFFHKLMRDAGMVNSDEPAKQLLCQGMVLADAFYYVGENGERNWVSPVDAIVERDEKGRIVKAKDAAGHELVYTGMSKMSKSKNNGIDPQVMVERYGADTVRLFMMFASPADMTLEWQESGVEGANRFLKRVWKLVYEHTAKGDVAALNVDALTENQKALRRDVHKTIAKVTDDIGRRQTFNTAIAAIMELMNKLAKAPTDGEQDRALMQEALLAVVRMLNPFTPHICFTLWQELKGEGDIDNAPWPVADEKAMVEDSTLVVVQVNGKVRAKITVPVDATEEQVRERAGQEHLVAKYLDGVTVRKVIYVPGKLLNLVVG
Sequence of Isoleucyl-tRNA synthetase (IleRS) (P00956 whole entry, looked up): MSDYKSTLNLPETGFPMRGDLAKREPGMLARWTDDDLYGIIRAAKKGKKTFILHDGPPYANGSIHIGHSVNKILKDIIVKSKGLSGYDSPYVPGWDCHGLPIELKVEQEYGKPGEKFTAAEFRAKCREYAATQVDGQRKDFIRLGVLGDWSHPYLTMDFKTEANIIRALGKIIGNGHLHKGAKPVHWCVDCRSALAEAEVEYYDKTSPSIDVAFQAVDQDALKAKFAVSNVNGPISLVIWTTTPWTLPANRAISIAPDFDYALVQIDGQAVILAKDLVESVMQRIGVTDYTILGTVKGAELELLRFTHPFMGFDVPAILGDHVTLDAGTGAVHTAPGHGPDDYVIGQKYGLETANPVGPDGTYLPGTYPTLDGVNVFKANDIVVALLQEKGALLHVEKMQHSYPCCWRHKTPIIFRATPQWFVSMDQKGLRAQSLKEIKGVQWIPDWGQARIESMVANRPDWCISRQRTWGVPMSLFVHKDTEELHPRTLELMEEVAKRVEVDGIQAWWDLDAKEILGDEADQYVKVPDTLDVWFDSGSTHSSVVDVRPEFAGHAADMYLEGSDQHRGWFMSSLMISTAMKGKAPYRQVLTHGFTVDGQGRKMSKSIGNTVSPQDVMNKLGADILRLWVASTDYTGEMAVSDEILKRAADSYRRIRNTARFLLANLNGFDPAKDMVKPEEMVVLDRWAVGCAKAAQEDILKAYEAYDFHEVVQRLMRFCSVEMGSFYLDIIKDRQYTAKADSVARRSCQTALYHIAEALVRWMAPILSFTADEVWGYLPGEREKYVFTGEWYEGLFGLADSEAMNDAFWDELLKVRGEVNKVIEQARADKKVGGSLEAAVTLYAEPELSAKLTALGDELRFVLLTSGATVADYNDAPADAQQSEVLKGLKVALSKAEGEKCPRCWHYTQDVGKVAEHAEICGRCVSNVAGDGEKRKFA

| Structure (SMILES) | IC50 [1] [nM] | MIC [2, 5] [µg/mL] | MIC [2, 6] [µg/mL] | MIC [2, 8] [µg/mL] | MIC [2, 9] [µg/mL] | MIC [2, 10] [µg/mL] | IC50 at 24 h [4] [µg/mL] | further results |
| --- | --- | --- | --- | --- | --- | --- | --- | --- |
| CC[C@H](C)[C@H](N)C(=O)N=[S@@](N)(=O)c1cccc(OC(F)F)c1 [ANASIA-069-2] | 13700 |  |  |  |  |  |  |  |
| CC[C@H](C)[C@H](N)C(=O)N=[S@](N)(=O)c1cccc(C(F)(F)F)c1 [ANASIA-072-1] | 53100 |  |  |  |  |  |  |  |
| CC[C@H](C)[C@H](N)C(=O)N=[S@](N)(=O)c1cccc(OC(F)(F)F)c1 [ANASIA-077-1] | 40800 |  |  |  |  |  |  |  |
| CC[C@H](C)[C@H](N)C(=O)N=[S@](N)(=O)c1ccsc1Cl [ANASIA-078-1] | 16400 |  |  |  |  |  |  |  |
| CC[C@H](C)[C@H](N)C(=O)N=[S@@](N)(=O)c1ccsc1Cl [ANASIA-078-2] | 599 |  |  |  |  |  |  |  |
| CC[C@H](C)[C@H](N)C(=O)N=[S@](N)(=O)c1cscc1C [ANASIA-079-1] | 19800 |  |  |  |  |  |  |  |
| CC[C@H](C)[C@H](N)C(=O)N=[S@@](N)(=O)c1cscc1C.Cl [ANASIA-079-2] | 372 | 64 |  |  |  |  |  |  |
| CC[C@H](C)[C@H](N)C(=O)N=[S@](N)(=O)c1csc(Cl)c1 [ANASIA-080-1] | 1140 |  |  |  |  |  |  |  |
| CC[C@H](C)[C@H](N)C(=O)N=[S@@](N)(=O)c1csc(Cl)c1 [ANASIA-080-2] | 41300 |  |  |  |  |  |  |  |
| CC(C)C[C@H](N)C(=O)N=[S@](N)(=O)c1scc(Cl)c1Cl.Cl [ANASIA-081-1] |  | 2 | 32 | 1 | 256 | > 64 | > 64 | IC50 [3]: 33.9 nM; MIC [2, 7]: 8 µg/mL |
| CC[C@H](C)[C@H](N)C(=O)N=S(N)(=O)c1csc2ccsc12 (some centres unmarked) [ANASIA-084] | 2820 |  |  |  |  |  |  |  |
| CC(C)C[C@H](N)C(=O)N=[S@@](N)(=O)c1ccccc1F.Cl [ANASIA-087-1] |  | 11.3 | > 64 | 32 | > 64 | > 64 | > 64 | IC50 [3]: 289 nM; MIC [2, 11]: 64 µg/mL |
| CC(C)C[C@H](N)C(=O)N=[S@](N)(=O)c1cccc(OC(F)F)c1.Cl [ANASIA-088-1] |  | 4 | > 64 | 4 | > 256 | > 64 | > 64 | IC50 [3]: 75.3 nM; MIC [2, 11]: 64 µg/mL; MIC [2, 7]: 32 µg/mL |
| CC(C)C[C@H](N)C(=O)N=[S@](N)(=O)c1ccsc1Cl.Cl [ANASIA-092-1] |  | 2 | 64 | 2 | 64 | > 64 | > 64 | IC50 [3]: 48.4 nM; MIC [2, 7]: 11.3 µg/mL |
| CC(C)C[C@H](N)C(=O)N=S(N)(=O)c1csc2ccsc12 (some centres unmarked) [ANASIA-100] |  | 0.5 (≈ 1.51 µM) | 32 (≈ 96.5 µM) | 0.5 (≈ 1.51 µM) | 64 (≈ 193 µM) | > 64 | > 64 | IC50 [3, 12]: 32.8 nM; MIC [2, 7]: 4 µg/mL (≈ 12.1 µM) |
| COc1ccsc1[S@@](N)(=O)=NC(=O)[C@@H](N)CC(C)C.Cl [ANASIA-108-1] |  | 8 | > 64 | 32 | 64 | 64 | > 64 | IC50 [3]: 127 nM; MIC [2, 7]: 16 µg/mL |
| CC[C@H](C)[C@H](N)C(=O)N=[S@](N)(=O)c1ccc2c(c1)OCO2 [ANASIA-115-1] | 4700 |  |  |  |  |  |  |  |
| CC[C@H](C)[C@H](N)C(=O)N=[S@](N)(=O)c1scc(Br)c1Br [ANASIA-116-1] | 3830 |  |  |  |  |  |  |  |
| CC[C@H](C)[C@H](N)C(=O)N=[S@@](N)(=O)c1scc(Br)c1Br [ANASIA-116-2] | 950 |  |  |  |  |  |  |  |
| CC1CCC(N)(C(=O)N=S(N)(=O)c2ccccc2)C1 (centres unmarked) [ANASIA-123] | > 100000 |  |  |  |  |  |  | IC50 [3, 12]: 4870 nM |
